Test results taken from PMC6222422, “Synthesis and Biological Evaluation of Novel Indole-Derived Thioureas” (Molecules : A Journal of Synthetic Chemistry and Natural …, 2018).

Columns and labels:
[1] = system: BVDV; experiment: microbe, parasite or virus in culture; assay type: cell-based, bovine viral diarrhoea virus; settings: for EC50: Bovine viral diarrhea virus isolates and strains, MDBK, in Bos taurus, read-out: BVDV EC50
[2] = system: YFV; experiment: microbe, parasite or virus in culture; assay type: cell-based; settings: Yellow fever virus, BHK, read-out: YFV EC50
[3] = system: CV-B5; experiment: microbe, parasite or virus in culture; assay type: cell-based, coxsackievirus B5; settings: Enterovirus B, CVB5, Vero 76, read-out: CV-B5 EC50
[4] = system: Sb-1; experiment: microbe, parasite or virus in culture; assay type: cell-based, poliovirus type-1; settings: Enterovirus C, Vero 76, read-out: Sb-1 EC50
[5] = system: Reo-1; experiment: microbe, parasite or virus in culture; assay type: cell-based, reovirus type-1; settings: Reovirus sp., BHK, read-out: Reo-1 EC50
[6] = system: RSV; experiment: microbe, parasite or virus in culture; assay type: cell-based, human respiratory syncytial virus; settings: human respiratory syncytial virus, Vero 76, read-out: RSV EC50
[7] = system: VSV; experiment: microbe, parasite or virus in culture; assay type: cell-based; settings: Vesicular stomatitis virus, Vero 76, read-out: VSV EC50
[8] = system: VV; experiment: microbe, parasite or virus in culture; assay type: cell-based; settings: Orthopoxvirus vaccinia, Vero 76, read-out: VV EC50
[9] = system: HSV-1; experiment: microbe, parasite or virus in culture; assay type: cell-based, human herpes 1; settings: Human alphaherpesvirus 1, Vero 76, read-out: HSV-1 EC50
[10] = in vitro; settings: human
[11] = in vitro; settings: cattle (Bos taurus)
[12] = in vitro; settings: Syrian hamster (Mesocricetus auratus)
[13] = in vitro; settings: African green monkey (Cercopithecus aethiops)
[14] = system: HIV-1; experiment: microbe, parasite or virus in culture; settings: Human immunodeficiency virus 1, MT4, read-out: HIV-1 EC50

Row | SMILES | EC50 [1] | EC50 [2] | EC50 [3] | EC50 [4] | EC50 [5] | EC50 [6] | EC50 [7] | EC50 [8] | EC50 [9] | CC50 [10] | CC50 [11] | CC50 [12] | CC50 [13] | EC50 [14] | melting point | activity against BVDV (in words) [1]
1 | S=C(NCCc1c[nH]c2ccccc12)NCc1ccccc1 [Compound 10, 1-(2-(1H-Indol-3-yl)ethyl)-3-benzylthiourea] | > 100 µM | > 52 µM | 30 ± 2.4 µM | > 100 µM | > 52 µM | > 100 µM | > 100 µM | > 100 µM | > 100 µM | 78 µM | > 100 µM | 52 µM | > 100 µM | > 78 µM |  | 
2 | CCCCc1ccc(NC(=S)NCCc2c[nH]c3ccccc23)c(C)c1 [Compound 27, 1-(2-(1H-Indol-3-yl)ethyl)-3-(4-butyl-2-methylphenyl)thiourea] | > 11 µM | > 9.5 µM | > 12 µM | > 12 µM | > 9.5 µM | > 12 µM | > 12 µM | > 12 µM | > 12 µM | 45 µM | 11 µM | 9.5 µM | 12 µM | > 45 µM | 172 to 174 °C | 
3 | FC(F)(F)c1cccc(NC(=S)NCCc2c[nH]c3ccccc23)c1 [Compound 24, 1-(2-(1H-Indol-3-yl)ethyl)-3-(3-(trifluoromethyl)phenyl)thiourea] | > 23 µM | > 9 µM | > 16 µM | > 16 µM | > 9 µM | > 16 µM | > 16 µM | > 16 µM | > 16 µM | 44 µM | 23 µM | 9 µM | 16 µM | > 44 µM | 169 to 171 °C | 
4 | Fc1ccc(NC(=S)NCCc2c[nH]c3ccccc23)cc1Cl [Compound 28, 1-(2-(1H-Indol-3-yl)ethyl)-3-(3-chloro-4-fluorophenyl)thiourea] | 13 ± 1.2 µM | > 30 µM | 20 ± 2.1 µM | > 32 µM | > 30 µM | > 32 µM | > 32 µM | > 32 µM | > 32 µM | 45 µM | 37 µM | 30 µM | 32 µM | > 45 µM | 162 to 164 °C | showed activity
5 | S=C(NCCc1c[nH]c2ccccc12)NC1CCCCC1 [Compound 9, 1-(2-(1H-Indol-3-yl)ethyl)-3-cyclohexylthiourea] | > 55 µM | > 13 µM | > 14 µM | > 14 µM | > 13 µM | > 14 µM | > 14 µM | > 14 µM | > 14 µM | 49 µM | 55 µM | 13 µM | 14 µM | > 49 µM |  | 
6 | Fc1cccc(NC(=S)NCCc2c[nH]c3ccccc23)c1 [Compound 12, 1-(2-(1H-Indol-3-yl)ethyl)-3-(3-fluorophenyl)thiourea] | > 49 µM | > 16 µM | > 60 µM | > 60 µM | > 16 µM | > 60 µM | > 60 µM | > 60 µM | > 60 µM | 47 µM | 49 µM | 16 µM | 60 µM | > 47 µM | 162 to 164 °C | 
7 | Cc1ccc(NC(=S)NCCc2c[nH]c3ccccc23)cc1Cl [Compound 23, 1-(2-(1H-Indol-3-yl)ethyl)-3-(3-chloro-4-methylphenyl)thiourea] | > 25 µM | > 10 µM | > 17 µM | > 17 µM | > 10 µM | > 17 µM | > 17 µM | > 17 µM | > 17 µM | 44 µM | 25 µM | 10 µM | 17 µM | > 44 µM | 161 to 163 °C | 
